Measurements taken from ChEMBL document CHEMBL3885881, “DrugMatrix”.

Organism: Rattus norvegicus
Assay: DrugMatrix - Regimen: Daily Repeat
Format: toxicity, organism-based, Sprague-Dawley
Parameters: regimen Daily Repeat, gender Male, age 6-8 weeks
Conditions: in vivo, po, route oral GAVAGE, vehicle 100 % SALINE; for ABSOLUTE BASOPHIL / ABSOLUTE EOSINOPHIL / ABSOLUTE LYMPHOCYTE / ABSOLUTE MONOCYTE / ABSOLUTE SEGMENTED NEUTROPHIL / BASOPHIL / EOSINOPHIL / ERYTHROCYTE COUNT / HEMATOCRIT / HEMOGLOBIN / LEUKOCYTE COUNT / LYMPHOCYTE / MEAN CORPUSCULAR HEMOGLOBIN / MEAN CORPUSCULAR HEMOGLOBIN CONCENTRATION / MEAN CORPUSCULAR VOLUME / MONOCYTE / NEUTROPHIL / NUCLEATED RED BLOOD CELLS / PLATELET COUNT: tissue Blood; for ALANINE AMINOTRANSFERASE / ALBUMIN / ALKALINE PHOSPHATASE / ASPARTATE AMINOTRANSFERASE / BLOOD UREA NITROGEN / CARBON DIOXIDE / CHLORIDE / CHOLESTEROL / CREATINE PHOSPHOKINASE / CREATININE / GLUCOSE / LACTATE DEHYDROGENASE / LIPASE / PHOSPHORUS / POTASSIUM / SODIUM / TOTAL BILIRUBIN / TOTAL PROTEIN / URIC ACID: tissue Plasma
[1] = 0 mg/kg, 72 h, dose level Control, time 3 day
[2] = 0 mg/kg, 120 h, dose level Control, time 5 day
[3] = 29 mg/kg, 72 h, dose level Low, time 3 day

How did the “ABSOLUTE BASOPHIL” value [1] turn out when `Cc1ccnc2c1NC(=O)c1cccnc1N2C1CC1` [NEVIRAPINE] was run?
The value was 0 CELLS/uL.

What about the “ABSOLUTE EOSINOPHIL” value [1] of the same compound?
Its value is 37 CELLS/uL.

And the “ABSOLUTE LYMPHOCYTE” value [1]?
The value was 12359.33 CELLS/uL.

What about the “ABSOLUTE MONOCYTE” value [1] of the same compound?
Its value is 122.67 CELLS/uL.

And the “ABSOLUTE SEGMENTED NEUTROPHIL” value [1]?
Its value is 847.67 CELLS/uL.

What about the BASOPHIL [1] of the same compound?
The BASOPHIL was 0%.

What about the EOSINOPHIL [1] of the same compound?
The EOSINOPHIL was 0.33%.

And the “ERYTHROCYTE COUNT” value [1]?
Its value is 5.75 x10E6/uL.

What about the HEMATOCRIT [1] of the same compound?
The HEMATOCRIT was 36.08%.

What about the HEMOGLOBIN [1] of the same compound?
Its HEMOGLOBIN is 14.07 G/DL.

What about the “LEUKOCYTE COUNT” value [1] of the same compound?
The value was 13.37 x10E3/uL.

And the LYMPHOCYTE [1]?
Its LYMPHOCYTE is 92.5%.

And the “MEAN CORPUSCULAR HEMOGLOBIN” value [1]?
Its value is 24.47 pg.

And the “MEAN CORPUSCULAR HEMOGLOBIN CONCENTRATION” value [1]?
Its value is 38.98 G/DL.

What about the “MEAN CORPUSCULAR VOLUME” value [1] of the same compound?
The value was 62.78 fL.

And the MONOCYTE [1]?
Its MONOCYTE is 1%.

And the NEUTROPHIL [1]?
Its NEUTROPHIL is 6.17%.

And the “NUCLEATED RED BLOOD CELLS” value [1]?
Its value is 0.17 /100WBC.

And the “PLATELET COUNT” value [1]?
The value was 1202.17 x10E3/uL.

What about the “ALANINE AMINOTRANSFERASE” value [1] of the same compound?
The value was 50.67 u/L.

What about the ALBUMIN [1] of the same compound?
The ALBUMIN was 4.13 G/DL.

And the “ALKALINE PHOSPHATASE” value [1]?
The value was 356.33 u/L.

What about the “ASPARTATE AMINOTRANSFERASE” value [1] of the same compound?
The value was 78.17 u/L.

And the “BLOOD UREA NITROGEN” value [1]?
The value was 14.17 mg/dL.

What about the “CARBON DIOXIDE” value [1] of the same compound?
The value was 31.33 mmol/L.

What about the CHLORIDE [1] of the same compound?
The CHLORIDE was 98.5 MEQ/L.

What about the CHOLESTEROL [1] of the same compound?
The CHOLESTEROL was 76.5 mg/dL.

And the “CREATINE PHOSPHOKINASE” value [1]?
The value was 248.33 u/L.

What about the CREATININE [1] of the same compound?
The CREATININE was 0.2 mg/dL.

And the GLUCOSE [1]?
The GLUCOSE was 144 mg/dL.

And the “LACTATE DEHYDROGENASE” value [1]?
The value was 107 u/L.

What about the LIPASE [1] of the same compound?
Its LIPASE is 9.83 u/L.

What about the PHOSPHORUS [1] of the same compound?
Its PHOSPHORUS is 12.8 mg/dL.

And the POTASSIUM [1]?
The POTASSIUM was 6.75 MEQ/L.

What about the SODIUM [1] of the same compound?
The SODIUM was 142 MEQ/L.

And the “TOTAL BILIRUBIN” value [1]?
Its value is 0.18 mg/dL.

What about the “TOTAL PROTEIN” value [1] of the same compound?
Its value is 5.98 G/DL.

What about the “URIC ACID” value [1] of the same compound?
The value was 1.42 mg/dL.

What about the “ABSOLUTE BASOPHIL” value [2] of the same compound?
The value was 0 CELLS/uL.

And the “ABSOLUTE EOSINOPHIL” value [2]?
The value was 0 CELLS/uL.

What about the “ABSOLUTE LYMPHOCYTE” value [2] of the same compound?
The value was 8681.17 CELLS/uL.

What about the “ABSOLUTE MONOCYTE” value [2] of the same compound?
The value was 79.83 CELLS/uL.

What about the “ABSOLUTE SEGMENTED NEUTROPHIL” value [2] of the same compound?
Its value is 689 CELLS/uL.

What about the BASOPHIL [2] of the same compound?
The BASOPHIL was 0%.

And the EOSINOPHIL [2]?
The EOSINOPHIL was 0%.

What about the “ERYTHROCYTE COUNT” value [2] of the same compound?
Its value is 5.49 x10E6/uL.

And the HEMATOCRIT [2]?
The HEMATOCRIT was 33.55%.

And the HEMOGLOBIN [2]?
Its HEMOGLOBIN is 13.1 G/DL.

What about the “LEUKOCYTE COUNT” value [2] of the same compound?
The value was 9.45 x10E3/uL.

And the LYMPHOCYTE [2]?
Its LYMPHOCYTE is 92.33%.

What about the “MEAN CORPUSCULAR HEMOGLOBIN” value [2] of the same compound?
The value was 23.92 pg.

What about the “MEAN CORPUSCULAR HEMOGLOBIN CONCENTRATION” value [2] of the same compound?
Its value is 39.07 G/DL.

And the “MEAN CORPUSCULAR VOLUME” value [2]?
Its value is 61.22 fL.

What about the MONOCYTE [2] of the same compound?
The MONOCYTE was 0.67%.

What about the NEUTROPHIL [2] of the same compound?
Its NEUTROPHIL is 7%.

And the “NUCLEATED RED BLOOD CELLS” value [2]?
The value was 0.17 /100WBC.

What about the “PLATELET COUNT” value [2] of the same compound?
The value was 1001.17 x10E3/uL.

What about the “ALANINE AMINOTRANSFERASE” value [2] of the same compound?
Its value is 49.33 u/L.

What about the ALBUMIN [2] of the same compound?
Its ALBUMIN is 4.07 G/DL.

And the “ALKALINE PHOSPHATASE” value [2]?
Its value is 300.33 u/L.

And the “ASPARTATE AMINOTRANSFERASE” value [2]?
Its value is 83.5 u/L.

And the “BLOOD UREA NITROGEN” value [2]?
Its value is 16 mg/dL.

What about the “CARBON DIOXIDE” value [2] of the same compound?
The value was 29.67 mmol/L.

What about the CHLORIDE [2] of the same compound?
The CHLORIDE was 100.5 MEQ/L.

And the CHOLESTEROL [2]?
Its CHOLESTEROL is 74.33 mg/dL.

And the “CREATINE PHOSPHOKINASE” value [2]?
Its value is 489.67 u/L.

And the CREATININE [2]?
Its CREATININE is 0.35 mg/dL.

What about the GLUCOSE [2] of the same compound?
The GLUCOSE was 151 mg/dL.

And the “LACTATE DEHYDROGENASE” value [2]?
The value was 133.67 u/L.

What about the LIPASE [2] of the same compound?
Its LIPASE is 11.17 u/L.

What about the PHOSPHORUS [2] of the same compound?
Its PHOSPHORUS is 10.88 mg/dL.

What about the POTASSIUM [2] of the same compound?
Its POTASSIUM is 5.5 MEQ/L.

And the SODIUM [2]?
Its SODIUM is 145.7 MEQ/L.

And the “TOTAL BILIRUBIN” value [2]?
Its value is 0.2 mg/dL.

And the “TOTAL PROTEIN” value [2]?
The value was 6.05 G/DL.

What about the “URIC ACID” value [2] of the same compound?
Its value is 0.68 mg/dL.

And the “ABSOLUTE BASOPHIL” value [3]?
Its value is 0 CELLS/uL.

And the “ABSOLUTE EOSINOPHIL” value [3]?
The value was 29.67 CELLS/uL.

What about the “ABSOLUTE LYMPHOCYTE” value [3] of the same compound?
Its value is 8345.33 CELLS/uL.

And the “ABSOLUTE MONOCYTE” value [3]?
Its value is 0 CELLS/uL.

What about the “ABSOLUTE SEGMENTED NEUTROPHIL” value [3] of the same compound?
Its value is 725 CELLS/uL.

And the BASOPHIL [3]?
The BASOPHIL was 0%.

What about the EOSINOPHIL [3] of the same compound?
The EOSINOPHIL was 0.33%.

What about the “ERYTHROCYTE COUNT” value [3] of the same compound?
Its value is 5.42 x10E6/uL.

And the HEMATOCRIT [3]?
The HEMATOCRIT was 33.9%.

And the HEMOGLOBIN [3]?
The HEMOGLOBIN was 13.2 G/DL.

And the “LEUKOCYTE COUNT” value [3]?
The value was 9.1 x10E3/uL.

And the LYMPHOCYTE [3]?
The LYMPHOCYTE was 91.67%.

And the “MEAN CORPUSCULAR HEMOGLOBIN” value [3]?
Its value is 24.43 pg.

What about the “MEAN CORPUSCULAR HEMOGLOBIN CONCENTRATION” value [3] of the same compound?
Its value is 38.93 G/DL.

And the “MEAN CORPUSCULAR VOLUME” value [3]?
The value was 62.7 fL.

And the MONOCYTE [3]?
Its MONOCYTE is 0%.

What about the NEUTROPHIL [3] of the same compound?
Its NEUTROPHIL is 8%.

What about the “NUCLEATED RED BLOOD CELLS” value [3] of the same compound?
The value was 0 /100WBC.

And the “PLATELET COUNT” value [3]?
The value was 673.67 x10E3/uL.

And the “ALANINE AMINOTRANSFERASE” value [3]?
The value was 74.33 u/L.

What about the ALBUMIN [3] of the same compound?
The ALBUMIN was 4.3 G/DL.

What about the “ALKALINE PHOSPHATASE” value [3] of the same compound?
The value was 343.67 u/L.

What about the “ASPARTATE AMINOTRANSFERASE” value [3] of the same compound?
The value was 123.67 u/L.

And the “BLOOD UREA NITROGEN” value [3]?
The value was 10.33 mg/dL.

What about the “CARBON DIOXIDE” value [3] of the same compound?
The value was 28.33 mmol/L.

What about the CHOLESTEROL [3] of the same compound?
The CHOLESTEROL was 68.67 mg/dL.

What about the “CREATINE PHOSPHOKINASE” value [3] of the same compound?
Its value is 179.33 u/L.

And the CREATININE [3]?
Its CREATININE is 0.43 mg/dL.

And the GLUCOSE [3]?
The GLUCOSE was 142.67 mg/dL.

And the “LACTATE DEHYDROGENASE” value [3]?
The value was 65.33 u/L.

What about the LIPASE [3] of the same compound?
The LIPASE was 15.67 u/L.

And the PHOSPHORUS [3]?
The PHOSPHORUS was 10.83 mg/dL.

What about the “TOTAL BILIRUBIN” value [3] of the same compound?
The value was 0.13 mg/dL.

And the “TOTAL PROTEIN” value [3]?
Its value is 5.03 G/DL.

What about the “URIC ACID” value [3] of the same compound?
Its value is 0.37 mg/dL.

What about the “ABSOLUTE BASOPHIL” value (29 mg/kg, 120 h, dose level Low, time 5 day) of the same compound?
The value was 0 CELLS/uL.
